Test results from US7332476B2, “Pyridyl substituted ketolide antibiotics” (Novartis AG, priority 2003, dated 2008).
In brackets after ≈: the same amount, converted by molar mass.

Assays:
Assay in all cases: MIC, broth microdilution (NCCLS)
Assay type in all cases: cell-based
[1] = test system: Streptococcus pneumoniae Stpn_49619; conditions: Table 10, Strain ID M (Table 8): Streptococcus pneumoniae Stpn_49619
Method in brief: (§1)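 Broth microdilution per NCCLS in cation-adjusted Mueller-Hinton broth, with 2-5% lysed horse blood added for S. pneumoniae. Inoculum 3×10^5–7×10^5 CFU/ml, 2-fold drug dilutions, 18-24 h at 35° C; S. pneumoniae under 5-10% CO2, others ambient air. MIC = lowest concentration preventing visible growth.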

[2] = test system: Streptococcus pyogenes Stpy_8668; conditions: Table 10, Strain ID G (Table 8): Streptococcus pyogenes Stpy_8668
Method in brief: as §1

[3] = test system: Staphylococcus epidermidis Step_f50654; conditions: Table 10, Strain ID D (Table 8): Staphylococcus epidermidis Step_f50654; in µg/mL (unit assumed)
Method in brief: as §1

[4] = test system: Streptococcus pneumoniae Stpn_Erm S 4297; conditions: Table 10, Strain ID R (Table 8): Streptococcus pneumoniae Stpn_Erm S 4297
Method in brief: as §1

[5] = test system: Enterococcus faecalis Enfa_29212; conditions: Table 10, Strain ID E (Table 8): Enterococcus faecalis Enfa_29212; in µg/mL (unit assumed)
Method in brief: as §1

[6] = test system: Staphylococcus epidermidis Step_14990; conditions: Table 10, Strain ID C (Table 8): Staphylococcus epidermidis Step_14990; in µg/mL (unit assumed)
Method in brief: as §1

[7] = test system: Haemophilus influenzae Hain_49247; conditions: Table 10, Strain ID H (Table 8): Haemophilus influenzae Hain_49247; unit assumed
[8] = test system: Staphylococcus aureus Stau_29213; conditions: Table 10, Strain ID A (Table 8): Staphylococcus aureus Stau_29213; in µg/mL (unit assumed)
Method in brief: as §1

[9] = test system: Streptococcus pneumoniae Stpn_Mef S 3427; conditions: Table 10, Strain ID Q (Table 8): Streptococcus pneumoniae Stpn_Mef S 3427; in µg/mL (unit assumed)
Method in brief: as §1

[10] = test system: Streptococcus pneumoniae Stpn_297-749; conditions: Table 10, Strain ID N (Table 8): Streptococcus pneumoniae Stpn_297-749
Method in brief: as §1

[11] = test system: Streptococcus pneumoniae Stpn_280-962; conditions: Table 10, Strain ID O (Table 8): Streptococcus pneumoniae Stpn_280-962
Method in brief: as §1

[12] = test system: Streptococcus pneumoniae Stpn_Mef 5654; conditions: Table 10, Strain ID P (Table 8): Streptococcus pneumoniae Stpn_Mef 5654; in µg/mL (unit assumed)
Method in brief: as §1

[13] = test system: Haemophilus influenzae Hain_960820544-3; conditions: Table 10, Strain ID J (Table 8): Haemophilus influenzae Hain_960820544-3; in µg/mL (unit assumed)
Description: (§2) Strains. The bacterial isolates listed in Table 8 were cultivated from −70° C. frozen stocks by two consecutive overnight passages (P1, P2) at 35° C. on 5% blood agar (Remel, Lenexa, Kans.). Chocolate agar (Remel) is used for Haemophilus influenzae. H. influenzae and Streptococcus pneumoniae are incubated in 5-10% CO2
(§3) Drug Stock Preparation. To determine the amount of solvent to be used to give the desired final concentration, the formula “weight obtained in mg/final concentration in mg/ml” will be used. It will give the amount of solvent in ml needed to be added to give the desired concentration. For example, if 2.5 mg/ml is the desired concentration and the weight of compound is 13.7 mg, then the amount of solvent to be added is […]. Methanol is used as the solvent to dissolve the test compounds. Further dilution of stock is done in sterile, deionized water. Drug stocks are kept frozen at −70° C., protected from light.
(§4) Susceptibility Testing. MICs are determined by the broth microdilution method in accordance with the NCCLS guidelines. In brief, organism suspensions are adjusted to a 0.5 McFarland standard to yield a final inoculum between 3×10^5 and 7×10^5 CFU/ml. Drug dilutions and inocula are made in sterile, cation adjusted Mueller-Hinton Broth (CAMHB) (Remel) for all but S. pneumoniae [CAMHB with 2-5% lysed horse blood (Remel)] and H. influenzae [Haemophilus Test Medium (Remel)]. An inoculum volume of 100 μl is added to wells containing 100 μl of broth with 2-fold serial dilutions of drug. All inoculated microdilution trays are incubated in ambient air at 35° C. for 18-24 hours, except for S. pneumoniae, and H. influenzae (both at 5-10% CO2).
(§5) Following appropriate incubation, the MIC is determined and the MIC is defined as the lowest concentration of the drug that prevented visible growth. […] Antibacterial activity of representative compounds of the invention were compared against telitromycin.

[14] = test system: Staphylococcus aureus Stau_33591; conditions: Table 10, Strain ID B (Table 8): Staphylococcus aureus Stau_33591; unit assumed
Description: as §2, §3, §4, §5

[15] = test system: Haemophilus influenzae Hain_2762; conditions: Table 10, Strain ID L (Table 8): Haemophilus influenzae Hain_2762; in µg/mL (unit assumed)
Description: as §2, §3, §4, §5

[16] = test system: Haemophilus influenzae Hain_960730503-3; conditions: Table 10, Strain ID I (Table 8): Haemophilus influenzae Hain_960730503-3; in µg/mL (unit assumed)
Description: as §2, §3, §4, §5

[17] = test system: Enterococcus faecalis Enfa_bc 11148-2; conditions: Table 10, Strain ID F (Table 8): Enterococcus faecalis Enfa_bc 11148-2; in µg/mL (unit assumed)
Description: as §2, §3, §4, §5

[18] = test system: Haemophilus influenzae Hain_953460299-3; conditions: Table 10, Strain ID K (Table 8): Haemophilus influenzae Hain_953460299-3; in µg/mL (unit assumed)
Description: as §2, §3, §4, §5

Compound | MIC [1] | MIC [2] | MIC [3] | MIC ([4]; unit assumed) [µg/mL] | MIC [5] | MIC [6] | MIC [7] [µg/mL] | MIC [8] | MIC [9] | MIC [10] | MIC [11] | MIC [12] | MIC [13] | MIC [14] [µg/mL] | MIC [15] | MIC [16] | MIC [17] | MIC [18] | MIC [4] | MIC ([2]; unit assumed) [µg/mL]
CC[C@H]1OC(=O)[C@H](C)C(=O)[C@H](C)[C@@H](OC2O[C@H](C)C[C@H](N(C)C)[C@H]2O)[C@@](C)(OC)C[C@@H](C)C(=O)[C@H](C)[C@H]2N(CCCCn3cnc(-c4ccc(C)nc4)c3)C(=O)O[C@]12CC (stereo partly drawn) [XIII] | =0.05 | =0.05 | 0.4 | 0.2 (≈ 0.238 µM) | 0.2 | 0.2 | 6.25 (≈ 7.44 µM) | 0.4 | 0.2 | =0.05 | =0.05 | 0.78 | 6.25 | > 50 | 1.56 | 6.25 | 3.13 | 6.25 | – | –
C=C[C@]12OC(=O)N(CCCCn3cnc(-c4ccc(F)nc4)c3)[C@@H]1[C@@H](C)C(=O)[C@H](C)C[C@](C)(OC)[C@H](OC1O[C@H](C)C[C@H](N(C)C)[C@H]1O)[C@@H](C)C(=O)[C@@H](C)C(=O)O[C@@H]2CC (stereo partly drawn) [XIX] | =0.05 | =0.05 | 0.1 | – | 0.1 | 0.1 | 3.13 (≈ 3.72 µM) | 0.1 | 0.1 | =0.05 | =0.05 | 0.4 | 6.25 | > 50 | 1.56 | 12.5 | 0.4 | 6.25 | =0.05 | –
CC[C@H]1OC(=O)[C@H](C)C(=O)[C@H](C)[C@@H](OC2O[C@H](C)C[C@H](N(C)C)[C@H]2O)[C@@](C)(OC)C[C@@H](C)C(=O)[C@H](C)[C@H]2N(CCCCn3cnc(-c4ccc(OC)nc4)c3)C(=O)O[C@]12CC (stereo partly drawn) [XVII] | =0.05 | =0.05 | 0.2 | 0.2 (≈ 0.234 µM) | 0.1 | 0.4 | 6.25 (≈ 7.3 µM) | 0.2 | 0.2 | =0.05 | =0.05 | 0.78 | 12.5 | > 50 | 1.56 | 6.25 | 3.13 | 12.5 | – | –
CC[C@H]1OC(=O)[C@H](C)C(=O)[C@H](C)[C@@H](OC2O[C@H](C)C[C@H](N(C)C)[C@H]2O)[C@@](C)(OC)C[C@@H](C)C(=O)[C@H](C)[C@H]2N(CCCCn3cnc(-c4ccc(F)nc4)c3)C(=O)O[C@]12CC (stereo partly drawn) [XV] | =0.05 | =0.05 | 0.2 | 0.1 (≈ 0.118 µM) | 0.1 | 0.2 | 3.13 (≈ 3.71 µM) | 0.4 | 0.1 | =0.05 | =0.05 | 0.4 | 6.25 | > 50 | 0.78 | 6.25 | 0.78 | 3.13 | – | –
C=C[C@]12OC(=O)N(CCCCn3cnc(-c4ccc(OCC)nc4)c3)[C@@H]1[C@@H](C)C(=O)[C@H](C)C[C@](C)(OC)[C@H](OC1O[C@H](C)C[C@H](N(C)C)[C@H]1O)[C@@H](C)C(=O)[C@@H](C)C(=O)O[C@@H]2CC (stereo partly drawn) [XXII] | =0.05 | – | 0.4 | 1.56 (≈ 1.8 µM) | 0.2 | 0.4 | 6.25 (≈ 7.2 µM) | 0.4 | 0.78 | =0.05 | =0.05 | 0.78 | 3.13 | > 50 | 1.56 | 6.25 | 25 | 12.5 | – | 0.1 (≈ 0.115 µM)
C=C[C@]12OC(=O)N(CCCCn3cc(-c4ccc(OC)nc4)nc3C)[C@@H]1[C@@H](C)C(=O)[C@H](C)C[C@](C)(OC)[C@H](OC1O[C@H](C)C[C@H](N(C)C)[C@H]1O)[C@@H](C)C(=O)[C@@H](C)C(=O)O[C@@H]2CC (stereo partly drawn) [XXVII] | =0.05 | – | 0.2 | – | 0.2 | 0.2 | 6.25 (≈ 7.2 µM) | 0.2 | 0.2 | =0.05 | =0.05 | 1.56 | 6.25 | > 50 | 1.56 | 12.5 | 6.25 | 12.5 | – | 0.1 (≈ 0.115 µM)
C=C[C@]12OC(=O)N(CCCCn3cnc(-c4ccc(OC)nc4)c3C)[C@@H]1[C@@H](C)C(=O)[C@H](C)C[C@](C)(OC)[C@H](OC1O[C@H](C)C[C@H](N(C)C)[C@H]1O)[C@@H](C)C(=O)[C@@H](C)C(=O)O[C@@H]2CC (stereo partly drawn) [XXVI] | =0.05 | – | 0.4 | – | 0.2 | 0.1 | 6.25 (≈ 7.2 µM) | 0.2 | 0.2 | =0.05 | =0.05 | 1.56 | 12.5 | > 50 | 1.56 | 12.5 | 1.56 | 12.5 | – | 0.1 (≈ 0.115 µM)
CC[C@H]1OC(=O)[C@H](C)C(=O)[C@H](C)[C@@H](OC2O[C@H](C)C[C@H](N(C)C)[C@H]2O)[C@@](C)(OC)C[C@@H](C)C(=O)[C@H](C)[C@@H]2[C@@H]1OC(=O)N2CCCCn1cnc(-c2ccc(C)nc2)c1 (stereo partly drawn) [XXV] | =0.05 | =0.05 | 0.2 | – | 0.1 | 0.2 | 3.13 (≈ 3.85 µM) | 0.2 | .04 | =0.05 | =0.05 | 1.56 | 6.25 | > 50 | 1.56 | 6.25 | 3.13 | 6.25 | – | –
